System: APP/PS1 mice
Test: Cognitive dysfunction in APP/PS1 mice
Type: in vivo
Description: Male transgenic APP/PS1 mice were purchased from the Model Animal Research Center of Nanjing University, and after being raised to 12 weeks old, the APP/PS1 mice were divided into three groups: normal C57 group (WT), model control group (APP/PS1+Vehicle), and TJ01-013 treatment group (APP/PST+TJ01-013). The mode of administration was by oral gavage, normal group and model control group were administered vehicle by oral gavage, the concentration of TJ01-013 was 30 mg/kg, the gavage volume was 5 ml/kg, the frequency of administration was once a day, and the administration period was 3 months. • (2) Water maze experiment
The water maze device is a circular pool (140 cm in diameter) filled with dissolved titanium dioxide water, keeping the water temperature at 22° C. A platform with a diameter of 12 cm was placed at a fixed position 1 cm below the water surface, and the mice were trained in four quadrants every day for five consecutive days. Each quadrant lasted 60 seconds or until the mice found the platform. […] All parameters were recorded by a video tracking system.
Mouse heart perfusion for brain extraction: APP/PS1 mice and control C57BL/6J mice were anesthetized, and after they became unconscious, the limbs were fixed on a dissection table in a fuming hood, and the abdominal skin was cut with scissors after alcohol disinfection to expose the liver. The diaphragm was quickly cut, and the heart was exposed by turning upward after clamping the xiphoid with hemostatic forceps. Prepared PBS was injected into the left ventricle, noting that the direction was toward the aorta. The peristaltic pump was turned on after opening the right auricle and the blood was drained at a low rate at first. When the heart stopped beating or the fluid pumped at the right auricle was clarified and colorless, the mouse liver can be seen to turn grayish white. The fur was cut open along the midline of the mouse hindbrain with scissors, and the skull was exposed, then forceps were inserted from the criss-cross of the mouse's brain shell, and scissors were used to assist in peeling off the skull, and then the intact whole brain was removed. The fresh mouse whole brain was halved and placed in a 5 mL centrifuge tube, and 4 mL of 4% paraformaldehyde fixative was added to fix for 24 h, sections were made for antigenic repair, incubated for 30 min with dropwise adding of BSA at a concentration of 3-5%, and stained overnight with polyclonal rabbit anti-GFAP antibody (1:100) and mouse anti-β-amyloid protein 1-16 antibody (1:100), and after the sections were washed in PBS three times, the corresponding fluorescent secondary antibody was added dropwise to cover the tissue, and the sections were incubated in dark for 1 h, the slides were washed and stained with DAPI staining solution added dropwisely for 10 min, and the sections were sealed with resin sealer, and finally imaged with Cytation3.
Mouse brain tissue homogenates were prepared according to the brain tissue homogenization method described in the Life Technologies ELISA Technical Guide. […]

O=C(O)C[S+]([O-])c1cc(NS(=O)(=O)c2ccc(Br)cc2)c2ccccc2c1O (centres unmarked) [I-1]
time to find the platform (water maze) (30 mg/kg oral gavage, 3 months, FIG. 42): significantly reduced | astrocyte activation in the hippocampal region (GFAP) (FIG. 44): significantly reduced | number and size of Aβ plaques (FIG. 44): significant decrease | amount of Aβ in the brain tissues (Elisa) (FIG. 45): significantly decreased | number of crossing over the platform (water maze) (vs APP/PS1 Vehicle group, FIG. 43): significantly larger
